Test system: EGFR
Experiment: EGFR single-particle tracking and diffusion analysis (dark-field, anti-EGFR-AuNP)
Assay type: cell-based
Conditions: ERK-KTR cells; NOExo treatment (complex of Example 1 + hν) or EGF treatment; untreated control 0.071
From the text: To confirm whether the activation of ERK by NO generated from the complex of Example 1 was induced by other receptors or membrane features, thus perturbing other signaling pathways, such as the MAPK pathway activated by the […] of EGF receptors (EGFRs) or by nonspecific disturbances caused by the formation of cellular membranes like lipid rafts, individual EGFRs in live cells were tracked, and analyzed.
Time-lapse dark-field microscope images were taken every 20 ms for 10 s. Lateral diffusion motion of protein was analyzed by particle trajectories. TrackMate plugin on Image J was used for single-particle tracking and trajectory analysis. For each particle, mean square displacement (MSD) was calculated from the x, y position and time information obtained from trajectory analysis; MSD(t)=<(xi+n−xi)^2+(yi+n−yi)^2>. The MSD versus time intervals were plotted up to the time lag (t) equivalent to 1/10th of the trajectory duration, then fitted to a linear equation corresponding to the Brownian motion. Diffusion coefficient (D) was calculated from the slope of the first ten points of the MSD plot; MSD=4Dt.
For single-molecule tracking of EGFR, anti-EGFR (EGFR anti-bodies) was conjugated to gold nanoparticles (AuNPs, 50 nm in diameter) using the biotin-neutravidin interaction (FIG. 8A), achieving high specificity (FIG. 8B). […]

Substance: epidermal growth factor [EGF, reference compound]
- diffusion coefficient of EGFR (DEGFR): 0.017 μm^2 s^−1

— patent US11351260B2, “Photocleavable cobalt-nitrosyl complex and nitric oxide carrier containing the same” (DAEGU GYEONGBUK INSTITUTE OF SCIENCE AND TECHNOLOGY, priority 2019, dated 2022)
